Key:
HL-60 = HL-60 differentiation potency; format: cell-based; settings: Homo sapiens
in vitro = settings: human

| EC50 (HL-60) [µM] | IC50 (in vitro) [µM] | SMILES | IC50 (in vitro; HL-60 cells) [µM] |
| --- | --- | --- | --- |
| < 0.01 | 0.36 | CC(C)[C@H](Oc1ccc(O[C@H]2O[C@@H]3O[C@@]4(C)CC[C@H]5[C@H](C)CC[C@@H]([C@H]2C)[C@@]35OO4)cc1)C(=O)O [Compound 261, (S)-3-methyl-2-(4-(((3R,5aS,6R,8aS, 9R,10S,12R, 12aR)-3,6,9-trimethyldeca-hydro-12H-3,12-epoxy[1,2]dioxepino[4,3-i]isochromen-10-yl)oxy)phenoxy) butanoic acid] |  |
| 0.0268 | 4.86 | C[C@H]1[C@@H](Oc2ccc([C@@H](C)C(=O)O)cc2F)O[C@@H]2O[C@@]3(C)CC[C@H]4[C@H](C)CC[C@@H]1[C@@]24OO3 [Compound 279, (R)-2-(3-fluoro-4-(((3R,5aS,6R,8aS, 9R,10S,12R, 12aR)-3,6,9-trimethyldeca-hydro-12H-3,12-epoxy[1,2]dioxepino[4,3-i]isochromen-10-yl)oxy)phenyl) propanoic acid] |  |
| 2.32 | > 20 | C[C@H]1[C@@H](O[C@H]2C[C@@H](C(=O)NC34C5C6C3C3C4C5C63C(=O)O)C2)O[C@@H]2O[C@@]3(C)CC[C@H]4[C@H](C)CC[C@@H]1[C@@]24OO3 (stereo partly drawn) [Compound 255, 4-((1R,3s)-3-(((3R,5aS,6R,8aS, 9R,10S,12R, 12aR)-3,6,9-trimethyldeca-hydro-12H-3,12-epoxy[1,2]dioxepino[4,3-i]isochromen-10-yl)oxy)cyclo-butane-1-carboxamido) cubane-1-carboxylic acid] |  |

The next lines start with the compound.

| SMILES | EC50 (HL-60) [µM] | IC50 (in vitro) [µM] | IC50 (in vitro; HL-60 cells) [µM] |
| --- | --- | --- | --- |
| C[C@H]1[C@@H](Oc2ccc([C@H](N)C(=O)O)cc2)O[C@@H]2O[C@@]3(C)CC[C@H]4[C@H](C)CC[C@@H]1[C@@]24OO3 [Compound 194, (S)-2-amino-2-(4-(((3R,5aS,6R,8aS, 9R,10S,12R, 12aR)-3,6,9-trimethyldeca-hydro-12H-3,12-epoxy[1,2]dioxepino[4,3-i]isochromen-10-yl)oxy)phenyl) acetic acid] | 17.7 | > 20 |  |
| C[C@H]1[C@@H](O[C@H]2CC[C@@H](C(=O)N[C@H](C(=O)O)c3ccccc3)CC2)O[C@@H]2O[C@@]3(C)CC[C@H]4[C@H](C)CC[C@@H]1[C@@]24OO3 [Compound 189, (S)-2-phenyl-2-((1R,4R)-4-(((3R,5aS,6R,8aS, 9R,10S,12R, 12aR)-3,6,9-trimethyldeca-hydro-12H-3,12-epoxy[1,2]dioxepino[4,3-i]isochromen-10-yl)oxy)cyclo-hexane-1-carboxamido) acetic acid] | 1.89 | 15.2 |  |
| C[C@H]1[C@@H](O[C@H]2C[C@@H](C(=O)N[C@H]3CC[C@@H](C(=O)O)C3)C2)O[C@@H]2O[C@@]3(C)CC[C@H]4[C@H](C)CC[C@@H]1[C@@]24OO3 [Compound 201, (1R,3S)-3-((1R,3R)-3-(((3R,5aS,6R,8aS, 9R,10S,12R, 12aR)-3,6,9-trimethyldeca-hydro-12H-3,12-epoxy[1,2]dioxepino[4,3-i]isochromen-10-yl)oxy)cyclo-butane-1-carboxamido) cyclopentane-1-carboxylic acid] | 6.73 |  | > 20 |
| C[C@H]1[C@@H](O[C@H]2CC[C@@H](C(=O)N[C@H](C(=O)O)C(C)(C)O)CC2)O[C@@H]2O[C@@]3(C)CC[C@H]4[C@H](C)CC[C@@H]1[C@@]24OO3 [Compound 249, (S)-3-hydroxy-3-methyl-2-((1R,4R)-4-(((3R,5aS,6R,8aS, 9R,10S,12R, 12aR)-3,6,9-trimethyldeca-hydro-12H-3,12-epoxy[1,2]dioxepino[4,3-i]isochromen-10-yl)oxy)cyclo-hexane-1-carboxamido) butanoic acid] | 20 | > 20 |  |
| C[C@H]1[C@@H](OC[C@H]2CC[C@@H](C(=O)N[C@H](C(=O)O)C(C)(C)C)CC2)O[C@@H]2O[C@@]3(C)CC[C@H]4[C@H](C)CC[C@@H]1[C@@]24OO3 [Compound 242, (S)-3,3-dimethyl-2-((1R,4R)-4-((((3R,5aS,6R,8aS, 9R,10S,12R, 12aR)-3,6,9-trimethyldeca-hydro-12H-3,12-epoxy[1,2]dioxepino[4,3-i]isochromen-10-yl)oxy)methyl)cyclohexane-1-carboxamido) butanoic acid] | 0.0213 | 1.27 |  |
